Results: patent publication US8956824B2, “Methods for identifying allosteric modulators of ship polypeptides” (British Columbia Cancer Agency Branch, priority 2006, dated 2015)
Entries after “also recorded” stand apart in the source; their conditions may differ.

Legend:
J16 cells = test: Inositol phospholipid analysis in LPS-stimulated macrophages; format: cell-based, mouse
Experimental: Inositol phospholipid analysis. J16 cells, a macrophage cell line immortalized from C57B16 mice, were grown in 10% FCS in IMDM supplemented with 10 μM 2-mercaptoethanol, 150 μM monothioglycolate (MTG) and 1 mM glutamine. 5×10^6 cells were plated the night before in 10 cm tissue culture dishes. The next day, cells were washed three times with phosphate-free medium before being starved in phosphate free RPMI (MP Biomedicals, Irvine, Calif.) supplemented with 10% dialyzed FCS (Invitrogen, Burlington, Ont) and 1% RPMI for 2 hrs. Cells were then labeled with 1.0 mCi of ^32P-labeled orthophosphate (MP Biomedicals, Irvine, Calif.)/ml for 2 hrs at 37° C. Cells were pretreated for 30 mM with AQX-016A, LY294004 or vehicle prior to stimulation with LPS (50 ng/ml) for 15 min. Extraction of inositol phospholipids and HPLC analysis of deacylated lipids were performed as described previously (16). The amount of radioactivity contained in the elution peak for each lipid (two to five fractions) was summed to give the total counts for each lipid, and data were normalized to the first 60 fractions to adjust for fluctuations in total lipid labeling and recovery between samples. Data are expressed as the mean+/− the SEM of three independent replicates for each stimulation condition and the experiment was repeated twice.

[1] = test system: 100 protein kinase and phosphatase targets; test: In vitro kinase/phosphatase screen; format: biochemical; details: 2 μM final concentration; changes <25% not considered significant
Experimental: Protein kinase assays were performed at 30° C. for 15 min in a final volume of 25 μL. The assay was initiated by the addition of [32P]-ATP and the reaction mixture incubated at 30° C. for 15 minutes. After the 15 minute incubation period, the assay was terminated by spotting 20 μl of the reaction mixture onto phosphocellulose P81 plate. The phosphocellulose P81 plate was washed 3 times for approximately 15 minutes each in a 1% phosphoric acid solution. The radioactivity on the P81 plate was counted in the presence of scintillation fluid in a scintillation counter. Protein phosphatase activities were determined using pNPP as substrate. Assays were performed at 37° C. for 15 min in a […]. The assay was started by incubating the reaction mixture at 37° C. for 15 minutes. After the 15 minutes incubation period, the assay was terminated by the addition of 25 μl of 2N NaOH stopping solution. The absorbance of the reaction solution was measured in a spectrophotometer at 410 nm. The activity of the enzymes in the presence of AQX-MN100 was compared to that in the vehicle control and expressed as a % change in activity relative to that observed in the vehicle control. Changes in activity of <25% were not considered significant. _

PH domain deleted SHIP1 = biological target: T1, PH domain deleted SHIP1 (Mus musculus, UniProt Q9ES52, DEL292-400/E403A/P402A/Q401A); test: Scintillation proximity assay, PH domain deleted SHIP1; format: binding
T1 construct: Full length, wild-type SHIP1 enzyme (wt) or SHIP1 enzyme in which the PH or C2 domains were deleted; His6 (N); made in house; 293T cells are stated only for the wild-type enzyme
T1 sequence (Q9ES52 with tags, fused parts or gaps DEL292-400/Q401A/P402A/E403A): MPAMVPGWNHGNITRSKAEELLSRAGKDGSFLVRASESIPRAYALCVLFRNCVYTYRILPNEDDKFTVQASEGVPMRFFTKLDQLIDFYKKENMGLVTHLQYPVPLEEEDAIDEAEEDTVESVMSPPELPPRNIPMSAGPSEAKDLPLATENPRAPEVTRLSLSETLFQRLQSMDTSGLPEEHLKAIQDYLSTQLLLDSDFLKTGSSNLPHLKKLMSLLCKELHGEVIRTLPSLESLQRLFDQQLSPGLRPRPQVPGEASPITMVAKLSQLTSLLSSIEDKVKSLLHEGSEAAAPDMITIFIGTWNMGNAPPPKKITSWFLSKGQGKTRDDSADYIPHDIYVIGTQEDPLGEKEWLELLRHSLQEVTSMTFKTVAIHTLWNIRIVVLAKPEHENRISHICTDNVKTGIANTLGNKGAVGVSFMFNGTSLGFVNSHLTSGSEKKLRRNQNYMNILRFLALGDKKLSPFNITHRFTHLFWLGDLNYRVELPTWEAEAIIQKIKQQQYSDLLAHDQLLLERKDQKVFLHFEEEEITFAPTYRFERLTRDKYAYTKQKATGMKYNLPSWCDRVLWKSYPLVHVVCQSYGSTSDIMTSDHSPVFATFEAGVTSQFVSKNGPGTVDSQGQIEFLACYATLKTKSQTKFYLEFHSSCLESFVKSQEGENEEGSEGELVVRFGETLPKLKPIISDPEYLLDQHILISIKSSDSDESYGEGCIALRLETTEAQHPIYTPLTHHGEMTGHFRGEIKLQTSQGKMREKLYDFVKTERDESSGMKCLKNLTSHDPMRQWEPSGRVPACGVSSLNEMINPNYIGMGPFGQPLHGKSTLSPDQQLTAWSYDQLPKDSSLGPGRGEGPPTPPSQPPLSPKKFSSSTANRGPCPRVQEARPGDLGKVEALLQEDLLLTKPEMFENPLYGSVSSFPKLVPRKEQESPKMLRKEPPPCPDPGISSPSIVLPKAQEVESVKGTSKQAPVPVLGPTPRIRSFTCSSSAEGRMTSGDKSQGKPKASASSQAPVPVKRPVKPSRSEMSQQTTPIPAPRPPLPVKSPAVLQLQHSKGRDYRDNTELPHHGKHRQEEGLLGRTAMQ

## Cc1cc(O)c(O)c2c1[C@]1(C)CC[C@H]3C(C)(C)CCC[C@]3(C)[C@H]1C2 [AQX-016A]
J16 cells; 30 min pretreatment with 5 mg/mL AQX-016A or 25 μM LY294002, LPS 15 min
  PIP3 levels after LPS stimulation: abolished this increase
J16 cells; 30 min pretreatment with AQX-016A or 25 μM LY294002, LPS 15 min
  PI-3,4-P2 levels after LPS stimulation: corresponding increase

## Cc1cc(O)cc2c1[C@]1(C)CC[C@H]3C(C)(C)CCC[C@]3(C)[C@H]1C2 [AQX-MN100]
[1]
  activity on a panel of 100 kinases and phosphatases: very little activity; also recorded: selectively enhances SHIP enzyme activity
PH domain deleted SHIP1
  binding of [3H]-AQX-MN100 to SHIP1 with PH domain deleted: attenuates the ability of SHIP1 to bind
